Test results published in ChEMBL document CHEMBL4725279, “Design and synthesis of peptide-based chimeric molecules to induce degradation of the estrogen and androgen receptors” (Bioorg Med Chem, 2020).

Assays:
Type in all cases: cell-based
[1] = target: T1, Protein cereblon/Aryl hydrocarbon receptor (Homo sapiens, UniProt P35869+Q96SW2); test: Protac activity at CRBN/AhR in human MCF7 cells assessed as induction of AhR protein degradation by measuring AhR protein level at 20 uM incubated for 8 hrs in presence of ubiquitin activating inhibitor MLN7243 by western blot analysis relative to lamin B; conditions: mcf7, 8 h
[2] = target: T2, Protein cereblon/Estrogen receptor (Homo sapiens) (UniProt P03372+Q96SW2); test: Protac activity at CRBN/ERalpha in human MCF7 cells assessed as induction of ERalpha protein degradation by measuring ERalpha protein level at 20 uM incubated for 8 hrs in presence of proteasome inhibitor, MG132 by western blot analysis relative to lamin B
[3] = target: T2, Protein cereblon/Estrogen receptor (Homo sapiens); test: Protac activity at CRBN/ERalpha in human MCF7 cells assessed as induction of ERalpha protein degradation by measuring ERalpha protein level at 20 uM incubated for 8 hrs in presence of ubiquitin activating inhibitor MLN7243 by western blot analysis relative to lamin B
[4] = target: T2, Protein cereblon/Estrogen receptor (Homo sapiens); test: Protac activity at CRBN/ERalpha in human MCF7 cells assessed as induction of ERalpha protein degradation by measuring ERalpha protein level at 5 uM incubated for 24 hrs by western blot analysis relative to lamin B
[5] = target: T2, Protein cereblon/Estrogen receptor (Homo sapiens); test: Protac activity at CRBN/ERalpha in human MCF7 cells assessed as induction of ERalpha protein degradation by measuring ERalpha protein level at 20 uM incubated for 24 hrs by western blot analysis relative to lamin B
[6] = target: T1, Protein cereblon/Aryl hydrocarbon receptor; test: Protac activity at CRBN/AhR in human MCF7 cells assessed as induction of AhR protein degradation by measuring AhR protein level at 5 uM incubated for 8 hrs by western blot analysis relative to lamin B; conditions: mcf7, 8 h
[7] = target: T1, Protein cereblon/Aryl hydrocarbon receptor; test: Protac activity at CRBN/AhR in human MCF7 cells assessed as induction of AhR protein degradation by measuring AhR protein level at 10 uM incubated for 24 hrs by western blot analysis relative to lamin B; conditions: mcf7, 24 h
[8] = target: T3, Protein cereblon/Androgen receptor (Homo sapiens) (UniProt P10275+Q96SW2); test: Protac activity at CRBN/AR in human MCF7 cells assessed as induction of AR protein degradation by measuring AR protein level at 20 uM incubated for 8 hrs in presence of proteasome inhibitor, MG132 by western blot analysis relative to lamin B
[9] = target: T3, Protein cereblon/Androgen receptor (Homo sapiens); test: Protac activity at CRBN/AR in human MCF7 cells assessed as induction of AR protein degradation by measuring AR protein level at 5 uM incubated for 24 hrs by western blot analysis relative to lamin B
[10] = target: T2, Protein cereblon/Estrogen receptor (Homo sapiens); test: Protac activity at CRBN/ERalpha in human MCF7 cells assessed as induction of ERalpha protein degradation incubated for 8 to 24 hrs by western blot analysis; conditions: time hrs 8-24
[11] = target: T3, Protein cereblon/Androgen receptor (Homo sapiens); test: Protac activity at CRBN/AR in CRBN siRNA-transfected human MCF7 cells assessed as induction of AR protein degradation by measuring AR protein level at 20 uM incubated for 8 hrs by western blot analysis relative to lamin B
[12] = target: T1, Protein cereblon/Aryl hydrocarbon receptor; test: Protac activity at CRBN/AhR in human MCF7 cells assessed as induction of AhR protein degradation by measuring AhR protein level at 20 uM incubated for 8 hrs by western blot analysis relative to lamin B; conditions: mcf7, 8 h
[13] = target: T2, Protein cereblon/Estrogen receptor (Homo sapiens); test: Protac activity at CRBN/ERalpha in human MCF7 cells assessed as induction of ERalpha protein degradation by measuring ERalpha protein level at 20 uM incubated for 8 hrs by western blot analysis relative to lamin B
[14] = target: T2, Protein cereblon/Estrogen receptor (Homo sapiens); test: Protac activity at CRBN/ERalpha in human MCF7 cells assessed as induction of ERalpha protein degradation by measuring ERalpha protein level at 10 uM incubated for 24 hrs by western blot analysis relative to lamin B
[15] = target: T1, Protein cereblon/Aryl hydrocarbon receptor; test: Protac activity at CRBN/AhR in human MCF7 cells assessed as induction of AhR protein degradation by measuring AhR protein level at 20 uM incubated for 24 hrs by western blot analysis relative to lamin B; conditions: mcf7, 24 h
[16] = target: T1, Protein cereblon/Aryl hydrocarbon receptor; test: Protac activity at CRBN/AhR in human MCF7 cells assessed as induction of AhR protein degradation by measuring AhR protein level at 20 uM incubated for 8 hrs in presence of proteasome inhibitor, MG132 by western blot analysis relative to lamin B; conditions: mcf7, 8 h
[17] = target: T2, Protein cereblon/Estrogen receptor (Homo sapiens); test: Protac activity at CRBN/ERalpha in human MCF7 cells assessed as induction of ERalpha protein degradation by measuring ERalpha protein level at 5 uM incubated for 8 hrs by western blot analysis relative to lamin B
[18] = target: T3, Protein cereblon/Androgen receptor (Homo sapiens); test: Protac activity at CRBN/AR in human MCF7 cells assessed as induction of AR protein degradation by measuring AR protein level at 20 uM incubated for 8 hrs by western blot analysis relative to lamin B
[19] = target: T3, Protein cereblon/Androgen receptor (Homo sapiens); test: Protac activity at CRBN/AR in human MCF7 cells assessed as induction of AR protein degradation by measuring AR protein level at 20 uM incubated for 24 hrs by western blot analysis relative to lamin B
[20] = target: T2, Protein cereblon/Estrogen receptor (Homo sapiens); test: Protac activity at CRBN/ERalpha in human MCF7 cells assessed as induction of ERalpha protein degradation by measuring ERalpha protein level at 10 uM incubated for 8 hrs by western blot analysis relative to lamin B
[21] = target: T1, Protein cereblon/Aryl hydrocarbon receptor; test: Protac activity at CRBN/AhR in human MCF7 cells assessed as induction of AhR protein degradation by measuring AhR protein level at 5 uM incubated for 24 hrs by western blot analysis relative to lamin B; conditions: mcf7, 24 h
[22] = target: T3, Protein cereblon/Androgen receptor (Homo sapiens); test: Protac activity at CRBN/AR in human MCF7 cells assessed as induction of AR protein degradation by measuring AR protein level at 10 uM incubated for 8 hrs by western blot analysis relative to lamin B
[23] = target: T3, Protein cereblon/Androgen receptor (Homo sapiens); test: Protac activity at CRBN/AR in human MCF7 cells assessed as induction of AR protein degradation by measuring AR protein level at 5 uM incubated for 8 hrs by western blot analysis relative to lamin B
[24] = target: T3, Protein cereblon/Androgen receptor (Homo sapiens); test: Protac activity at CRBN/AR in human MCF7 cells assessed as induction of AR protein degradation by measuring AR protein level at 10 uM incubated for 24 hrs by western blot analysis relative to lamin B
[25] = target: T1, Protein cereblon/Aryl hydrocarbon receptor; test: Protac activity at CRBN/AhR in human MCF7 cells assessed as induction of AhR protein degradation by measuring AhR protein level at 10 uM incubated for 8 hrs by western blot analysis relative to lamin B; conditions: mcf7, 8 h
[26] = target: T2, Protein cereblon/Estrogen receptor (Homo sapiens); test: Protac activity at CRBN/ERalpha in CRBN siRNA-transfected human MCF7 cells assessed as induction of ERalpha protein degradation by measuring ERalpha protein level at 20 uM incubated for 8 hrs by western blot analysis relative to lamin B
[27] = target: T3, Protein cereblon/Androgen receptor (Homo sapiens); test: Protac activity at CRBN/AR in human MCF7 cells assessed as induction of AR protein degradation incubated for 8 to 24 hrs by western blot analysis; conditions: time hrs 8-24
[28] = target: T3, Protein cereblon/Androgen receptor (Homo sapiens); test: Protac activity at CRBN/AR in human MCF7 cells assessed as induction of AR protein degradation by measuring AR protein level at 20 uM incubated for 8 hrs in presence of ubiquitin activating inhibitor MLN7243 by western blot analysis relative to lamin B

T1 sequence (P35869 whole entry): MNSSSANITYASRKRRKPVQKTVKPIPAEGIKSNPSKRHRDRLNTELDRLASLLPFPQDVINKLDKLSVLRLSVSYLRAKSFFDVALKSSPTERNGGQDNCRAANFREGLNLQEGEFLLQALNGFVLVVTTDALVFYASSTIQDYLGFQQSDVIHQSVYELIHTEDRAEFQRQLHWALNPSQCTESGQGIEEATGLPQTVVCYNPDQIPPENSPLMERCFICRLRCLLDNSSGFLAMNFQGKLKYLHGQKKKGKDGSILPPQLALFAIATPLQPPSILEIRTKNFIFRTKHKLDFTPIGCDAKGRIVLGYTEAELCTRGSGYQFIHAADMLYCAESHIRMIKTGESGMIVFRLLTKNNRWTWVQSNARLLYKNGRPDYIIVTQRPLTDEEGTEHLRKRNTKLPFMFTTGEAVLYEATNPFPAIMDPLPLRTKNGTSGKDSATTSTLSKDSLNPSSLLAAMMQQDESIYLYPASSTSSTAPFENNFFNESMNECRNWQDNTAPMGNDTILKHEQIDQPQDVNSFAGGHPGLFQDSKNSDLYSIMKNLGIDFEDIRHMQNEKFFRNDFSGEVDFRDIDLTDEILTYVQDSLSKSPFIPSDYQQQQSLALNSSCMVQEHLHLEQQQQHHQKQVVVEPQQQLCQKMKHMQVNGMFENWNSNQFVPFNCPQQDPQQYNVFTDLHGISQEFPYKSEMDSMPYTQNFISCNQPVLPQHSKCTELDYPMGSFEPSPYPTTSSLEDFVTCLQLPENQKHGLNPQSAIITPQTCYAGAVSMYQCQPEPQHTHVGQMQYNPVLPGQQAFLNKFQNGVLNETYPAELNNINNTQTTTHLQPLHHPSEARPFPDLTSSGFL
T1 sequence (Q96SW2 whole entry): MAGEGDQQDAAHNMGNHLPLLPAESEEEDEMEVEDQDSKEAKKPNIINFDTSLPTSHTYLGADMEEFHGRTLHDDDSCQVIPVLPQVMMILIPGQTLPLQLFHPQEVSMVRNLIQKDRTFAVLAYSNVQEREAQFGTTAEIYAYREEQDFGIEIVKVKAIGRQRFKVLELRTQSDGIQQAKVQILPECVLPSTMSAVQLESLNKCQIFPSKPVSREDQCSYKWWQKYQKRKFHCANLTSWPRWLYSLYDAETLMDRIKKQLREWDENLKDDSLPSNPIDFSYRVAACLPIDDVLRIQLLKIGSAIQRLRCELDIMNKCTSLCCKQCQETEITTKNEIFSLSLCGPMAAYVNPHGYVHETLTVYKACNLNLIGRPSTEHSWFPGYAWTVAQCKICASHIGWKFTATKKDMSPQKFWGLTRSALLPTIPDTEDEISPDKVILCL
T3 sequence (P10275 whole entry, looked up): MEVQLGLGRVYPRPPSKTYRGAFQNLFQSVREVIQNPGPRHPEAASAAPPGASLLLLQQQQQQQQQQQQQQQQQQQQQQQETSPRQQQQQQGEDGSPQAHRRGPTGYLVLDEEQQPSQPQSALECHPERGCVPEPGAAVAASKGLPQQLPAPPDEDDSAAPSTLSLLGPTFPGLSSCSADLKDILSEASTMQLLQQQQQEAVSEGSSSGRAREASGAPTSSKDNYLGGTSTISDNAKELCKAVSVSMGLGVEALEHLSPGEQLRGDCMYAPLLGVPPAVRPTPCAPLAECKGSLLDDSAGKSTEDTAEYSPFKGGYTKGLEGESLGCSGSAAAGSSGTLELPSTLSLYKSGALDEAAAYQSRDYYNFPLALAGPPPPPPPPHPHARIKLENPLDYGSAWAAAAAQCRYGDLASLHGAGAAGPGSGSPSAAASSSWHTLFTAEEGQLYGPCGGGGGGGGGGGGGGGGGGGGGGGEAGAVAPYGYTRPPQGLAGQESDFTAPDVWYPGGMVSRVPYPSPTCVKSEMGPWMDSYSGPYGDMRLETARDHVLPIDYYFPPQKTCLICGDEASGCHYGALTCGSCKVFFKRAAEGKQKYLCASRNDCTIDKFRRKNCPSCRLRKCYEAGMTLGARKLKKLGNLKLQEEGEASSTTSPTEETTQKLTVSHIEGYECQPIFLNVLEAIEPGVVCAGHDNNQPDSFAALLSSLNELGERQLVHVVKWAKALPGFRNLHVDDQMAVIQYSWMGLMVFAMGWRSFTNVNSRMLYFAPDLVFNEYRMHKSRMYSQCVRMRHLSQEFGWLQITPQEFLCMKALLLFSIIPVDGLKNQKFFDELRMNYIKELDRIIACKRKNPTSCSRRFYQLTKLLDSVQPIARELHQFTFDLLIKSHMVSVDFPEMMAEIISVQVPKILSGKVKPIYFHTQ
T3 sequence (Q96SW2 whole entry, looked up): as the sequence (Q96SW2 whole entry) above
T2 sequence (P03372 whole entry, looked up): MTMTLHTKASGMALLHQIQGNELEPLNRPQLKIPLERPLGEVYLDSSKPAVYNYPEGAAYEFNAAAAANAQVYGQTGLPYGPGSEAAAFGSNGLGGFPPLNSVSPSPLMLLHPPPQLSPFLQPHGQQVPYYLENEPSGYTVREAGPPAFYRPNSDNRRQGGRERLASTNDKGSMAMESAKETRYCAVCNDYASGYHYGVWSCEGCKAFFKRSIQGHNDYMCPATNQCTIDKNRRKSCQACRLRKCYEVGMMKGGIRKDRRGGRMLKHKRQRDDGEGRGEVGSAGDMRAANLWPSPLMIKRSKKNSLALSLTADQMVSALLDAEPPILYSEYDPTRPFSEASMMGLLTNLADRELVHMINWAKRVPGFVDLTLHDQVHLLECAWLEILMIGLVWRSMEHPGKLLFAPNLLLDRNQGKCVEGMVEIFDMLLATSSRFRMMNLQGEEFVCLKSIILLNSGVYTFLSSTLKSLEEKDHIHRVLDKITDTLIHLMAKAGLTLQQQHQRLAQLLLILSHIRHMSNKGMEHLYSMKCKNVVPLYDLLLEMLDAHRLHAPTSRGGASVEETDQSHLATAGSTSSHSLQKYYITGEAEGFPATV
T2 sequence (Q96SW2 whole entry, looked up): as the sequence (Q96SW2 whole entry) above

CC[C@H](C)[C@@H]1NC(=O)[C@H](NC(=O)[C@@H](N)CCCCNC(=O)CCOCCOCCOCCOCCOCCNc2cccc3c2C(=O)N(C2CCC(=O)NC2=O)C3=O)CSSC[C@@H](C(=O)N[C@@H](CCCNC(=N)N)C(=O)N[C@@H](CC(C)(C)C)C(=O)N[C@@H](CC(C)C)C(=O)N[C@@H](CCC(N)=O)C(=O)NCC(=O)NCC(=O)NCC(=O)N[C@@H](CCCNC(=N)N)C(=O)N[C@@H](CCCNC(=N)N)C(=O)N[C@@H](CCCNC(=N)N)C(=O)N[C@@H](CCCNC(=N)N)C(=O)N[C@@H](CCCNC(=N)N)C(=O)N[C@@H](CCCNC(=N)N)C(=O)N[C@@H](CCCNC(=N)N)C(N)=O)NC(=O)[C@H](CC(C)C)NC1=O (stereo partly drawn) gave an Activity [1] of 107%, an Activity [2] of 78% and an Activity [3] of 117%. For the same molecule, the Activity [4] was 85%, the Activity [5] was 51% and the Activity [6] was 124%. The Activity [7] was 111%, the Activity [8] was 92% and the Activity [9] was 84%. For the same molecule, the Activity [10] was “Dose-dependent effect”, the Activity [11] was 93% and the Activity [12] was 115%. The Activity [13] was 57%, the Activity [14] was 64% and the Activity [15] was 133%. For the same molecule, the Activity [16] was 123%, the Activity [17] was 108% and the Activity [18] was 51%. For the same molecule, the Activity [19] was 79%, the Activity [20] was 85% and the Activity [21] was 101%. It also gave an Activity [22] of 80%, an Activity [23] of 97% and an Activity [24] of 89%. For the same molecule, the Activity [25] was 123%, the Activity [26] was 93% and the Activity [27] was “Dose-dependent effect”. The Activity [28] was 119%.
